Reference: patent US20190375786A1, “STABLE PEPTIDES AND METHODS OF USE THEREOF” (Fred Hutchinson Cancer Research Center, priority 2016, published 2019)
Positions of bridges follow the written chain, without caps; N, C: chain ends. Residues, ends and D or L forms follow the SMILES beside them.

What was measured:
pepsin = pepsin (Sus scrofa, UniProt P00791); test: Pepsin digestion resistance in simulated gastric fluid, RP-HPLC; format: in vitro ADME, porcine; parameters: purchased Sigma Aldrich P7012; settings: 500 U/ml pepsin in SGF pH 1.05, 30 minutes at 37.5° C.; HPLC peak vs untreated peptide
pepsin, sequence (P00791 60-385): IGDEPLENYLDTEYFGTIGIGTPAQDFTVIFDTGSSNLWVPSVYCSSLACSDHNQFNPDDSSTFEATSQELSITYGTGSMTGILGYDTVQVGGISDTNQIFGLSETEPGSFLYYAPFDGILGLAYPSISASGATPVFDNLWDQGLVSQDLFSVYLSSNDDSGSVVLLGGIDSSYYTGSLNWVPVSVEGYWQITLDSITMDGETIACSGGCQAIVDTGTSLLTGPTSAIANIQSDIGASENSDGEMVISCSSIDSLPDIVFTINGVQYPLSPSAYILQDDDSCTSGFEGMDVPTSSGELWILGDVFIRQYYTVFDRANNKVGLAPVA
Method in brief: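 Digestion resistance read by reversed-phase HPLC (C-18, 0.1% TFA, 5–45% acetonitrile over 10 min; 214/280 nm) after 12.5 μg peptide spent 30 min at 37.5 °C in pH 1.05 simulated gastric fluid, with or without 500 U/ml pepsin. Some samples quenched with Tris base and DTT.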

trypsin = trypsin (Sus scrofa, UniProt P00761); test: Trypsin digestion resistance of soluble peptide, RP-HPLC; format: in vitro ADME, porcine; parameters: purchased Sigma Aldrich 6567; settings: 500 U/ml trypsin, 30 minutes at 37.5° C.; HPLC peak vs untreated peptide
trypsin, sequence (P00761 9-231): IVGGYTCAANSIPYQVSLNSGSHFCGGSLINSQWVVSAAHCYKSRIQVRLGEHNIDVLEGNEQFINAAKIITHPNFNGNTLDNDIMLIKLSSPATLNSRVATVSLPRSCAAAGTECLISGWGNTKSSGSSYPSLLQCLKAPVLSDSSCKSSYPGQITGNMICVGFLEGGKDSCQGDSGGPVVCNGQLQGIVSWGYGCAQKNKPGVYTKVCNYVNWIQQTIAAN
Method in brief: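 Read-out was RP-HPLC (C-18, water/acetonitrile with 0.1% TFA, 5-45% over 10 min) of peptide left after trypsin treatment. Digest: 12.5 μg peptide, 500 U/ml porcine trypsin, PBS, 37.5° C for 30 min, stopped by soybean trypsin inhibitor; samples then reduced (10 mM DTT) or left non-reduced.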

Compound	Resistance to Pepsin (500 U/ml) (pepsin)	Resistance to Trypsin (500 U/ml) (trypsin)
CC(C)[C@H](NC(=O)[C@H](CO)NC(=O)CN)C(=O)N[C@@H](CO)C(=O)N[C@H]1CSSC[C@@H]2NC(=O)[C@H](CCCCN)NC(=O)[C@H](C)NC(=O)[C@H](CCCNC(=N)N)NC(=O)[C@H](CCC(N)=O)NC(=O)[C@H](CC(=O)O)NC(=O)[C@H](CCCCN)NC(=O)[C@H]([C@@H](C)O)NC(=O)[C@H](C)NC(=O)[C@@H]3CSSC[C@@H](C(=O)N[C@@H](CCC(=O)O)C(=O)N4CCC[C@H]4C(=O)N[C@@H](CCCCN)C(=O)O)NC(=O)[C@H](C(C)C)NC(=O)[C@H](CSSC[C@H](NC(=O)[C@H](CC(=O)O)NC(=O)[C@H](CCC(=O)O)NC1=O)C(=O)N1CCC[C@H]1C(=O)N[C@@H](CCC(=O)O)C(=O)N[C@@H](Cc1c[nH]cn1)C(=O)N3)NC(=O)[C@H](CCCNC(=N)N)NC(=O)[C@H](CC(=O)O)NC(=O)[C@H](CC(N)=O)NC(=O)[C@H](CC(=O)O)NC2=O [compound 54] (H-GSVSCEDCPEHCATKDQRAKCDNDRCVCEPK-OH; disulfide 5-21, 8-26, 12-28)	High (A peptide classified as high indicates that the majority (at least 75%) of the HPLC peak of the treated peptide is still present as compared to the HPLC peak of the untreated peptide)	Low (A peptide classified as low indicates that the majority (over 75%) of the HPLC peak of the treated peptide disappeared as compared to the HPLC peak of the untreated peptide)
CC[C@H](C)[C@H](NC(=O)CNC(=O)[C@H](CO)NC(=O)CN)C(=O)N[C@H](C(=O)N[C@H]1CSSC[C@@H]2NC(=O)[C@H]([C@@H](C)CC)NC(=O)[C@H](CC(N)=O)NC(=O)[C@H](C(C)C)NC(=O)[C@H](CCCCN)NC(=O)[C@H](CCCCN)NC(=O)CNC(=O)[C@H](CCC(N)=O)NC(=O)[C@H](CCSC)NC(=O)CNC(=O)[C@@H]3CSSC[C@@H](C(=O)N[C@@H](CCCCN)C(=O)N[C@@H](CCCCN)C(=O)NCC(=O)O)NC(=O)[C@H](CCCCN)NC(=O)[C@H](CSSC[C@H](NC(=O)[C@H](C(C)C)NC(=O)[C@H](CCCCN)NC1=O)C(=O)N[C@@H](CCCCN)C(=O)N[C@@H]([C@@H](C)CC)C(=O)N[C@@H]([C@@H](C)CC)C(=O)N3)NC(=O)[C@H](CCCCN)NC(=O)[C@H]([C@@H](C)CC)NC(=O)[C@@H]1CCCN1C(=O)[C@H](C)NC(=O)[C@H](CCCCN)NC2=O)C(C)C [compound 55] (H-GSGIVCKVCKIICGMQGKKVNICKAPIKCKCKKG-OH; disulfide 6-23, 9-29, 13-31)	High (A peptide classified as high indicates that the majority (at least 75%) of the HPLC peak of the treated peptide is still present as compared to the HPLC peak of the untreated peptide)	Low (A peptide classified as low indicates that the majority (over 75%) of the HPLC peak of the treated peptide disappeared as compared to the HPLC peak of the untreated peptide)
CC[C@H](C)[C@@H]1NC(=O)[C@@H]2CSSC[C@@H]3NC(=O)[C@H](CCCCN)NC(=O)CNC(=O)[C@H](CC(N)=O)NC(=O)[C@H](CCSC)NC(=O)[C@H](CSSC[C@H](NC(=O)[C@H](CCCCN)NC(=O)[C@@H](NC(=O)[C@H](CC(=O)O)NC(=O)[C@@H](NC(=O)[C@@H]4CCCN4C(=O)[C@@H](NC(=O)CNC(=O)[C@H](CO)NC(=O)CN)C(C)C)[C@@H](C)O)C(C)C)C(=O)N[C@@H](CCCNC(=N)N)C(=O)NCC(=O)N[C@@H](CO)C(=O)N4CCC[C@H]4C(=O)N[C@@H](CCC(N)=O)C(=O)N2)NC(=O)[C@H](CCCCN)NC(=O)CNC(=O)[C@H](Cc2ccccc2)NC(=O)[C@H](CCCNC(=N)N)NC(=O)[C@H](CCSC)NC(=O)CNC(=O)[C@H](C)NC(=O)[C@H](CC(=O)O)NC(=O)[C@H](CCCCN)NC(=O)[C@H](CSSC[C@@H](C(=O)N[C@H](C(=O)N2CCC[C@H]2C(=O)N[C@@H](CCCCN)C(=O)O)[C@@H](C)O)NC(=O)[C@H](Cc2c[nH]cn2)NC3=O)NC(=O)[C@@H]2CCCN2C(=O)[C@H](CCC(N)=O)NC1=O [compound 56] (H-GSGVPTDVKCRGSPQCIQPCKDAGMRFGKCMNGKCHCTPK-OH; disulfide 10-30, 16-35, 20-37)	High (A peptide classified as high indicates that the majority (at least 75%) of the HPLC peak of the treated peptide is still present as compared to the HPLC peak of the untreated peptide)	Low (A peptide classified as low indicates that the majority (over 75%) of the HPLC peak of the treated peptide disappeared as compared to the HPLC peak of the untreated peptide)
CC[C@H](C)[C@@H]1NC(=O)[C@H](CCCCN)NC(=O)[C@@H](NC(=O)[C@H](CCCCN)NC(=O)[C@@H](NC(=O)[C@H](CC(N)=O)NC(=O)[C@@H](NC(=O)[C@@H](NC(=O)[C@@H](NC(=O)CNC(=O)[C@H](CO)NC(=O)CN)C(C)C)[C@@H](C)CC)[C@@H](C)CC)C(C)C)CSSC[C@@H]2NC(=O)[C@H](CCCCN)NC(=O)CNC(=O)[C@H](Cc3ccccc3)NC(=O)[C@H](CCCNC(=N)N)NC(=O)[C@H](CCSC)NC(=O)CNC(=O)[C@H](C)NC(=O)[C@H](CCCCN)NC(=O)[C@H](CCCCN)NC(=O)[C@@H]3CSSC[C@@H](C(=O)N[C@H](C(=O)N4CCC[C@H]4C(=O)N[C@@H](CCCCN)C(=O)O)[C@@H](C)O)NC(=O)[C@H](Cc4c[nH]cn4)NC(=O)[C@H](CSSC[C@H](NC(=O)[C@H](CCC(N)=O)NC(=O)[C@H](CCCNC(=N)N)NC(=O)[C@H](CO)NC1=O)C(=O)N[C@@H](CC(C)C)C(=O)N[C@@H](CCC(=O)O)C(=O)N1CCC[C@H]1C(=O)N3)NC(=O)[C@H](CCCCN)NC(=O)CNC(=O)[C@H](CC(N)=O)NC(=O)[C@H](CCSC)NC2=O [compound 57]	High (A peptide classified as high indicates that the majority (at least 75%) of the HPLC peak of the treated peptide is still present as compared to the HPLC peak of the untreated peptide)	High (A peptide classified as high indicates that the majority (at least 75%) of the HPLC peak of the treated peptide is still present as compared to the HPLC peak of the untreated peptide)
